Here are results for nine molecules from patent US20070004649A1, “Anti-influenza virus compound comprising biflavonoid-sialic acid glycoside” (The Kitasato Institute, priority 2003, published 2007).

Like-named read-outs stand apart in the source and are kept apart here.

In series [1] the target is A/Guizhou/54/89 virus sialidase (Influenza A virus, UniProt I6UMM5). Nature of the series: Inhibitory activity against influenza A/Guizhou/54/89 virus sialidase (4-MU-NeuAc substrate, HA vaccine as enzyme). Format: biochemical, influenza virus A/Guizhou/54/89 (H3N2 subtype).
Series [2] deals with influenza virus. Conditions: cited from earlier work.
For series [3], the system named is influenza virus. The note with it: cited from earlier work. The source holds these as a separate data set.
In series [4] the test system is MDCK (Madin-Darby canine kidney) cells. Put plainly: Cytotoxicity in non-infected MDCK cells (MTT method). The note with it: 12.5 μg/mL, three days. Background: Tetrazolium assays rely on reduction of a dye to a coloured formazan, in cell work by metabolically active cells.
Series [5] addresses B/Ibaraki/2/85 virus sialidase (Influenza B virus, UniProt P16207). Nature of the series: Inhibitory activity against influenza B/Ibaraki/2/85 virus sialidase (4-MU-NeuAc substrate, HA vaccine as enzyme). Format: biochemical, influenza virus B/Ibaraki/2/85.
Series [6] deals with A/PR/8/34 virus sialidase (Influenza A virus, UniProt P03468). Nature of the series: Inhibitory activity against influenza A/PR/8/34 virus sialidase (4-MU-NeuAc substrate, HA vaccine as enzyme). Format: biochemical, influenza virus A/PR/8/34 (H1N1 subtype).
[7] abbreviates: final concentration of 10 μg/mL.

Chain of A/PR/8/34 virus sialidase (P03468 whole entry): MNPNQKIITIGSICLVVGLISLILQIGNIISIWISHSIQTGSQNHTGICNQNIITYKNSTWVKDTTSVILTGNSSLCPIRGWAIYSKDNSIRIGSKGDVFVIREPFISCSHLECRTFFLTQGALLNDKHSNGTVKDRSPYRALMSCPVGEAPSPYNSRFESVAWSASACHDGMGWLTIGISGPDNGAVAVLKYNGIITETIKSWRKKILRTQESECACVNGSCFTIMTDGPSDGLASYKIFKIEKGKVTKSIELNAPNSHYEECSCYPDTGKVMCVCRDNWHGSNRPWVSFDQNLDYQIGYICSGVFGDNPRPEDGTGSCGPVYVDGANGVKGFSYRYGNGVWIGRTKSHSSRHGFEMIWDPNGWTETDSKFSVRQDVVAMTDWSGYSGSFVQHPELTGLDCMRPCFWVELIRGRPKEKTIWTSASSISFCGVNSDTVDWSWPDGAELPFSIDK
Chain of A/Guizhou/54/89 virus sialidase (I6UMM5 1-469): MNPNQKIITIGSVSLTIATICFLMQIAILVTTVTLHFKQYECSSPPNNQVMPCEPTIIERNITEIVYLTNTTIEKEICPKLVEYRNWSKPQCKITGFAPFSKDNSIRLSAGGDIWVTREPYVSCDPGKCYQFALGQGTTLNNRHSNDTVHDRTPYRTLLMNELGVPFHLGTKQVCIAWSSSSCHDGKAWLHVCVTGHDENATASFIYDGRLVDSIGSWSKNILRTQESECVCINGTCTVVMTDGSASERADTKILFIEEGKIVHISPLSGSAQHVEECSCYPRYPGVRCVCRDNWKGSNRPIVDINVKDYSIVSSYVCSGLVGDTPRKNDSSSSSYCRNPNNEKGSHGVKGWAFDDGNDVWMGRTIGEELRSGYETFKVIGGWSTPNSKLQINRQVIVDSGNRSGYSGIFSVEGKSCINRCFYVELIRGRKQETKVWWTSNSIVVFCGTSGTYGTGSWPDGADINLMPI
Chain of B/Ibaraki/2/85 virus sialidase (P16207 whole entry): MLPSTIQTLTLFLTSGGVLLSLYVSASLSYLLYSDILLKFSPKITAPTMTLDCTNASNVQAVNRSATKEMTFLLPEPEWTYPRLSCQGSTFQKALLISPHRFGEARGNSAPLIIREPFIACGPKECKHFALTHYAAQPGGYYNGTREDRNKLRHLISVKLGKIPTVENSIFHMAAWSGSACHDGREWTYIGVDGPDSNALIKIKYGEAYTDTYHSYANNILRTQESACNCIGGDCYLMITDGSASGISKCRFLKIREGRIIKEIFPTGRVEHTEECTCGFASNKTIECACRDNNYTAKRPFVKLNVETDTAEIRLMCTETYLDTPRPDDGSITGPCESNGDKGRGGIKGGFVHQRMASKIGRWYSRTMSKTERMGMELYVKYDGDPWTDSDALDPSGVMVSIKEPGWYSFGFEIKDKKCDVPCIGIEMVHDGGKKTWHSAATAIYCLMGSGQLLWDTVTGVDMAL

With “(5)-7″-O-(N-acetylneuraminal)-7,4′-di-O-methylamentoflavone [Gin-Neu-1-(S)]”, the “inhibitory activity against the A/Guizhou/54/89 virus sialidase” value (from here on “inhibitory activity”) in series [1] (final concentration of 1 μg/mL) is “about 50%”.

Regarding `COc1c(O)cc(O)c2c(=O)cc(-c3ccc(O)cc3)oc12` [F36, 5,7,4′-trihydroxy-8-methoxyflavone], the “anti-influenza virus activity in vivo” value in the series with influenza virus [2] is reported as “has anti-influenza virus activity”. Also, the “anti-influenza virus activity in vitro” value with influenza virus [3] is reported as “has anti-influenza virus activity”.

For “(R)-7″-O-(N-acetylneuraminyl)-7,4-di-O-methylamentoflavone [Gin-Neu-1-(R)]”, the “IC50, A/Guizhou/54/89 virus sialidase” value in series [1] was determined as 1 µg/mL. The “inhibitory activity” value in series [1] (final concentration of 1 μg/mL) is listed as “about 50%”.

Consider `COc1cc(O)c2c(=O)cc(-c3ccc(OC)c(-c4c(O)cc(O)c5c(=O)cc(-c6ccc(O)cc6)oc45)c3)oc2c1` [ginkgetin], for which, in series [4], the “cytotoxicity (cell viability by the MTT method)” value is “showed cytotoxicity”.

Turning to `COc1cc(O)c2c(=O)cc(-c3ccc(OC)c(-c4c(OC5(C(=O)O)CC(O)C(NC(C)=O)C(C(O)C(O)CO)O5)cc(O)c5c(=O)cc(-c6ccc(OC7(C(=O)O)CC(O)C(NC(C)=O)C(C(O)C(O)CO)O7)cc6)oc45)c3)oc2c1` [Gin-Neu-2-(S), (S)-7″,4′″-di-O-(N-acetylneuraminyl)-7,4′-di-O-methylamentoflavone], in series [1] (final concentration of 1 μg/mL), the “inhibitory activity” value is reported as “about 50%”.

As usually defined, the melting point is the temperature, or range, at which the solid turns liquid. A word on the IC50: it is the point on the concentration scale where inhibition reaches its midpoint. The low end stands for greater potency, the high end for weaker potency. With `COc1ccc(-c2cc(=O)c3c(O)cc(O[C@]4(C(=O)O)C[C@H](O)[C@@H](NC(C)=O)[C@H]([C@H](O)[C@H](O)CO)O4)c(-c4cc(-c5cc(=O)c6c(O)cc(OC)cc6o5)ccc4OC)c3o2)cc1` (relative stereo) [Sci-Neu-2, (S)-7″-O-(N-acetylneuraminyl)-7,4′,4′″-tri-O-methylamentoflavone], the melting point was 200 °C (dec.). In series [1], this molecule gave an IC50 of 1.15 µM. For the same molecule, in series [1] (final concentration of 1 μg/mL), the inhibition at 1 µg/mL was approximately 50%. For the same molecule, the inhibition at 10 µg/mL in series [1] (setting [7]) was not below 80%. Further, the inhibition at 10 µg/mL in series [5] (setting [7]) was found to be 65%. Also, in series [5] (final concentration of 100 μg/mL), the inhibition at 100 µg/mL was not below 80%. Moreover, inhibition in series [6] was half-maximal at 5.74 µM (IC50). For the same molecule, in series [6] (even at a final concentration of 10 μg/mL (second sentence of b311), read-out: inhibitory activity against the A/PR/8/34 virus sialidase), the inhibition at 10 µg/mL is not below 70%. The inhibition at 10 µg/mL in series [6] (read-out: inhibitory activity against the A/PR/8/34 virus sialidase, final concentration of 10 μg/mL (first sentence of b311)) was not below 80%.

With `COc1ccc(-c2cc(=O)c3c(O)cc(O)c(-c4cc(-c5cc(=O)c6c(O)cc(O)cc6o5)ccc4OC)c3o2)cc1` [isoginkgetin], the “cytotoxicity (cell viability by the MTT method)” value in series [4] is “showed cytotoxicity”.

In the case of `COC(=O)C1(Oc2cc(O)c3c(=O)cc(-c4ccc(O)cc4)oc3c2-c2cc(-c3cc(=O)c4c(O)cc(OC)cc4o3)ccc2OC)CC(OC(C)=O)C(NC(C)=O)C(C(OC(C)=O)C(COC(C)=O)OC(C)=O)O1` [Gin-NeuAc-3, (S)-7,4′-di-O-methyl-7″-O-(1″″-methyl-4″″,7″″,8″″,9″″-tetra-O-acetyl-N-acetylneuraminyl)a mentoflavone], the “inhibitory activity” value in series [1] (final concentration of 1 μg/mL) is on record as “about 50%”.

Turning to `COC(=O)C1(Oc2ccc(-c3cc(=O)c4c(O)cc(OC5(C(=O)OC)C[C@H](OC(C)=O)[C@@H](NC(C)=O)[C@H]([C@H](OC(C)=O)[C@@H](COC(C)=O)OC(C)=O)O5)c(-c5cc(-c6cc(=O)c7c(O)cc(OC)cc7o6)ccc5OC)c4o3)cc2)C[C@H](OC(C)=O)[C@@H](NC(C)=O)[C@H]([C@H](OC(C)=O)[C@@H](COC(C)=O)OC(C)=O)O1` (stereo partly drawn) [Gin-NeuAc-4, (R)-7,4′-di-O-methyl-7″-O-(1″″-methyl-4″″,7″″,8″″,9″″-tetra-O-acetyl-N-acetylneuraminyl)-4′″-O-(1′″″-methyl-4′″″,7′″″,8′″″,9′″″-tetra-O-acetyl-N-acetylneuraminyl)amentoflavone], the “inhibitory activity” value in series [1] (final concentration of 1 μg/mL) was “about 50%”.
